Data as given in article PMC6435570, “Zafirlukast Is a Dual Modulator of Human Soluble Epoxide Hydrolase and Peroxisome Proliferator-Activated Receptor γ” (Frontiers in Pharmacology, 2019).
Where “and” joins values, the source holds several entries; their conditions need not be identical. Equal values may be shown once.

Experiments:
[1] = biological target: T1, human PPARα ligand binding domain (Homo sapiens, UniProt Q07869); test: PPAR reporter gene assay (Gal4 hybrid, PPARα); assay type: cell-based; conditions: HEK-293T, reference GW7647 1 μM, tested up to 10 μM
T1 construct: expressed in transfected cells; host or cells: HEK-293T
T1 sequence (Q07869 239-466 limits assumed): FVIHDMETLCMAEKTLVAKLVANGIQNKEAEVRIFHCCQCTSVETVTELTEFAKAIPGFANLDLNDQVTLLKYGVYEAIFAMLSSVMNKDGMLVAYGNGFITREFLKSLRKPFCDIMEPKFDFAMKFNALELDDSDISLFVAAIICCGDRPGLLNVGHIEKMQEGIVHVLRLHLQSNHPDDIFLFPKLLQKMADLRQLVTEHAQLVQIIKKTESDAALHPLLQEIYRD
Method: (§1) HEK-293T cells were seeded in 96-well plates (2.5 × 10^4 cells/well) and were allowed to adhere overnight. Before transfection, medium was changed to Opti-MEM without supplements. Transient plasmid transfection was carried out using Lipofectamine LTX reagent (Invitrogen, Carlsbad, CA, United States) according to the manufacturer’s protocol with pFR-Luc (Stratagene, La Jolla, CA, United States), pRL-SV40 (Promega, Fitchburg, MA, United States) and pFA-CMV-PPAR-LBD ([Rau et al., 2006]). 5 h after transfection, medium was changed to Opti-MEM supplemented with penicillin (100 U/mL) and streptomycin (100 μg/mL), now additionally containing 0.1% DMSO and the respective test compound or 0.1% DMSO alone as untreated control. Each concentration was tested in triplicates and each experiment was repeated independently at least four times. Following overnight (12–16 h) incubation with the test compounds, cells were assayed for luciferase activity using the Dual-Glo^TM Luciferase Assay System (Promega, Fitchburg, MA, United States) according to the manufacturer’s protocol. Luminescence was measured with an Infinite M200 luminometer (Tecan Group Ltd., Männedorf, Switzerland). Normalization of transfection efficiency and cell growth was done by division of firefly luciferase data by renilla luciferase data and multiplying the value by 1000 resulting in relative light units (RLU). Fold activation was obtained by dividing the mean RLU of a test compound at a respective concentration by the mean RLU of untreated control. Relative activation was obtained by dividing the fold activation of a test compound at a respective concentration by the fold activation of the respective PPARα, γ or δ full agonist GW-7647, pioglitazone or L165,041 at 1 μM. EC50 and standard deviation were calculated with the mean relative activation values of at least four independent experiments by SigmaPlot 10.0 (Systat Software GmbH, Erkrath, Germany) using a four parameter logistic regression. […]

[2] = biological target: T2, human PPARδ ligand binding domain (Homo sapiens, UniProt Q03181); test: PPAR reporter gene assay (Gal4 hybrid, PPARδ); assay type: cell-based; conditions: HEK-293T, reference L165,041 1 μM, tested up to 10 μM
T2 construct: expressed in transfected cells; host or cells: HEK-293T
T2 sequence (Q03181 211-439 limits assumed): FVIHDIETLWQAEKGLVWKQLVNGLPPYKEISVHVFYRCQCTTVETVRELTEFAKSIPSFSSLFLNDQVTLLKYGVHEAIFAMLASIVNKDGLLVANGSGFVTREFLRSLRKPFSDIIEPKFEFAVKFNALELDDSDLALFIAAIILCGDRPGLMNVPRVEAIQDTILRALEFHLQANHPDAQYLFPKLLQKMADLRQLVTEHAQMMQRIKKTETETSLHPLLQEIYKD
Method: as §1

sEH (HEP-G2) = biological target: T3, sEH (HEP-G2) (Homo sapiens, UniProt P34913); test: sEH activity in HEP-G2 cell lysates (14(15)-EET-d11 to DHET-d11, LC-MS/MS); assay type: biochemical; conditions: HEP-G2 cell homogenate, (±)14(15)-EET-d11 substrate, DHET formation by LC-MS/MS
T3 construct: 1 μg of total cell homogenate diluted in 100 μl of PBS; endogenous in cells; host or cells: HEP-G2
T3 sequence (P34913 1-555): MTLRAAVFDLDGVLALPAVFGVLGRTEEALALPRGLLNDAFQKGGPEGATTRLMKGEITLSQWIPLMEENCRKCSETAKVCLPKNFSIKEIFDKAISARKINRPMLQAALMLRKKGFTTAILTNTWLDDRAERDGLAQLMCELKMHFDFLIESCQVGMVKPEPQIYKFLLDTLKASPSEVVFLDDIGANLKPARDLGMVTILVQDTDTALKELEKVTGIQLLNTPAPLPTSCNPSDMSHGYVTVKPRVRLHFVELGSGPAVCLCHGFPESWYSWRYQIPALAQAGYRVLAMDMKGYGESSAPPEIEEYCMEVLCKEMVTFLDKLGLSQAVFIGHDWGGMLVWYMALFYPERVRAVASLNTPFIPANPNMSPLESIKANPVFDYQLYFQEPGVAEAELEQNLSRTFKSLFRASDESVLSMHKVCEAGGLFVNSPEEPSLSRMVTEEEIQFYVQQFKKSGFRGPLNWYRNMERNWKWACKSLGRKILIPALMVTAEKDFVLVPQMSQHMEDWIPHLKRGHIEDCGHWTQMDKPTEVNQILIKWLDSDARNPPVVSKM
Method: Quantification of cellular sEH metabolic activity was performed as described by [Zha et al. (2014)]. For this, HEP-G2 cells were harvested, washed twice with PBS and sonicated in PBS for disruption of cell integrity. Then, 1 μg of total cell homogenate diluted in 100 μl of PBS containing 0.1 mg/ml BSA was incubated with the compounds or vehicle for 15 min at 37°C. After this, 25 ng (±)14(15)-EET-d11 (Cayman Chemical, Ann Arbor, MI, United States) were added per sample and the incubation was continued for additional 10 min at 37°C. A blank was performed using PBS (containing 0,1 mg/mL BSA). The reactions were stopped by adding 100 μL of ice cold methanol. After centrifugation (2000 rpm, 4°C, 5 min), supernatants were analyzed by LC-MS/MS and the amounts of (±)14(15)-EET-d11 and the corresponding (±)14(15)-DHET-d11 were determined.
14(15)-EET-d11 and 14(15)-DHET-d11 content of the extracted samples were analyzed employing liquid chromatography tandem mass spectroscopy (LC-MS/MS). The LC/MS-MS system comprised an API 5500 QTrap (Sciex, Darmstadt, Germany), equipped with a Turbo-V-source operating in negative ESI mode, an Agilent 1200 binary HPLC pump and degasser (Agilent, Waldbronn, Germany) and an HTC Pal autosampler (Chromtech, Idstein, Germany) fitted with a 25 μL LEAP syringe (Axel Semrau GmbH, Sprockhövel, Germany). High purity nitrogen for the mass spectrometer was produced by a NGM 22-LC/MS nitrogen generator (cmc Instruments, Eschborn, Germany). All substances were obtained from Cayman Chemical, Ann Arbor, MI, United States. Stock solutions with 2,500 ng/mL of both analytes were prepared in methanol. Working standards were obtained by further dilution with a concentration range of 0.1–250 ng/mL for 14(15)-EET-d11 and 14(15)-DHET-d11. Sample extraction was performed with liquid–liquid-extraction. Therefore, 150 μL of matrix homogenates were gently mixed with 20 μL of internal standard [14(15)-EET and 14(15)-DHET all with a concentration of 100 ng/ml in methanol], and were extracted twice with 600 μL of ethyl acetate. Samples for standard curve and quality control were prepared similarly, instead of 150 μL of matrix homogenates, 150 μL PBS were added. Further 20 μL methanol, 20 μL working standard and 20 μL internal standard were added. The organic phase was removed at a temperature of 45°C under a gentle stream of nitrogen. The residues were reconstituted with 50 μL of methanol/water/(50:50, v/v), centrifuged for 2 min at 10,000 g and then transferred to glass vials (Macherey-Nagel, Düren, Germany) prior to injection into the LC-MS/MS system. For the chromatographic separation a Gemini NX C18 column and pre-column were used (150 mm × 2 mm i.d., 5 μm particle size and 110 Å pore size from Phenomenex, Aschaffenburg, Germany). A linear gradient was employed at a flow rate of 0.5 mL/min mobile phase with a total run time of 17.5 min. Mobile phase was A water/ammonia (100:0.05, v/v) and B acetonitrile/ammonia (100:0.05, v/v). The gradient started from 85% A to 10% within 12 min. This was held for 1 min at 10% A. Within 0.5 min the mobile phase shifted back to 85% A and was held for 3.5 min to equilibrate the column for the next sample. The injection volume of samples was 20 μL. Quantification was performed with Analyst Software V 1.5.1 (Sciex, Darmstadt, Germany) employing the internal standard method (isotope- dilution mass spectrometry). Ratios of analyte peak area and internal standard area (y-axis) were plotted against concentration (x-axis) and calibration curves were calculated by least square regression with 1/concentration^2 weighting.

[3] = test system: PPARγ, FABP-4 and CD36 protein in 3T3-L1 adipocytes; test: Protein expression in differentiated 3T3-L1 adipocytes (Western Blot); assay type: cell-based, murine; conditions: rosiglitazone 2 μM; for PPARγ isoforms γ1 and γ2 protein expression: 3T3-L1 differentiated with cocktail plus compound; for Protein expression of PPARγ target genes FABP-4 and CD36: after 14 days
Method: 3T3-L1 cells were differentiated into adipocytes for 14 days according to the protocol of [Zebisch et al. (2012)]. For this, cells were seeded in 6-well plates ([…]) and differentiation was induced after 48 h by addition of a differentiation cocktail containing 1 μg/mL insulin, 0.25 μM dexamethasone and 0.5 mM isobutylmethylxanthine (IBMX) in DMEM supplemented with 10% FCS and 1% PS. […] After 2 days, medium was replaced by DMEM supplemented with 10% FCS, 1% PS and 1 μg/mL insulin for 2 more days. Afterwards, cells were kept for lipid droplet accumulation in DMEM containing 10% FCS and 1% PS until day 15. Media were replaced every other day.
Total 3T3-L1 or HEP-G2 cell lysates were prepared in lysis buffer (20 mM Tris-HCl, pH 7.4, 150 mM NaCl, 2 mM EDTA, 1% Triton X-100, 0.5% NP-40) supplemented with protease and phosphatase inhibitors (PhosSTOP^TM + cOmplete^TM Mini, Roche Diagnostics GmbH, Mannheim, Germany). Protein concentrations were quantified using the Pierce^TM BCA Protein Assay Kit (Thermo Scientific, Waltham, MA, United States). Total protein (30 μg/lane) was separated by SDS-polyacrylamide gel electrophoresis and transferred to nitrocellulose membranes (GE Healthcare Life Sciences, Little Chalfont, United Kingdom). Membranes were blocked with Odyssey blocking reagent (LI-COR Biosciences, Bad Homburg, Germany) for 1 h at room temperature. Ensuing, membranes were incubated with antibodies against CD36 (EPR6573, Abcam, Cambridge, United Kingdom), PPARγ (E-8, Santa Cruz Biotechnology, Heidelberg, Germany), FABP-4 (C-15, Santa Cruz Biotechnology, Heidelberg, Germany) or PPARγ Ser273 (Bioss Antibodies Inc., Woburn, MA, United States) overnight at 4°C. Afterwards, membranes were washed and incubated with fluorescence conjugated secondary antibodies (IRDye, LI-COR Biosciences, Bad Homburg, Germany). Protein antibody complexes were visualized on the Odyssey Infrared Imaging System (LI-COR Biosciences, Bad Homburg, Germany). β-actin (I-19, goat, polyclonal, Santa Cruz Biotechnology, Heidelberg, Germany) was used as loading control. The density of the immune reactive bands was analyzed using the Image Studio 5.2 software (LI-COR Biosciences, Bad Homburg, Germany).
As master regulator of adipocyte differentiation in men and mice, PPARγ plays a crucial role in the cell’s commitment to the adipocyte lineage by controlling important functions such as intracellular biosynthesis, transport and accumulation of lipids. Murine 3T3-L1 fibroblasts are a well characterized in vitro tool to study PPARγ induced adipocyte differentiation. These cells can be differentiated from fibroblasts into adipocytes by an activation cocktail (0.5 mM IBMX, 1 μg/mL insulin, 0.25 μM dexamethasone) together with the potential PPARγ agonist. Upon differentiation, different parameters such as lipid accumulation and PPARγ target gene expression can be assessed to investigate the PPARγ activating potential of the compounds of interest. […] Rosiglitazone (2 μM) was used as positive control. This was followed by insulin (1 μg/mL) treatment for another 48 h. After this, cells were kept in growth medium for a week to complete the differentiation process and allow intracellular lipid accumulation. Subsequently, the cells were stained with Oil Red O solution to investigate the extent of cytoplasmic lipid droplet accumulation as a measure for cell differentiation.
In addition to mRNA expression, the protein expression levels of the two PPARγ target genes FABP-4 and CD36 in differentiated 3T3-L1 cells after 14 days were investigated. For this, total protein lysates were separated by gel electrophoresis followed by Western Blotting (Figure 3E,F and Supplementary Figures S2A,B).

SMILES	PPARα EC50 [1]	PPARδ EC50 [2]	IC50 (sEH (HEP-G2))	PPARγ isoforms γ1 and γ2 protein expression [3]	Protein expression of PPARγ target genes FABP-4 and CD36 [3]
CC(C)(O)c1ccccc1CC[C@@H](SCC1(CC(=O)O)CC1)c1cccc(/C=C/c2ccc3ccc(Cl)cc3n2)c1 [Montelukast, montelukast]	i.a. @ 10 μM	i.a. @ 10 μM	1900 nM and 1950 nM	not affected	no effect at all
COc1cc(C(=O)NS(=O)(=O)c2ccccc2C)ccc1Cc1cn(C)c2ccc(NC(=O)OC3CCCC3)cc12 [Zafirlukast, zafirlukast]	i.a. @ 10 μM	i.a. @ 10 μM	800 nM and 820 nM	upregulated the protein levels	induced target gene expression as well but to a weaker extent
